Where “and” joins values, the source holds several entries; their conditions need not be identical. Identical values can stand only once. Toxic doses and inconclusive results are not listed. Rule as the data show it: active = T/C of 150% or more; inactive = T/C below 125%.
Test system: L1210 leukemia ip in BDF1 mice, survival T/C
Experiment: NCI In Vivo Anticancer Drug Screen. Data for tumor model L1210 Leukemia (intraperitoneal) in B6D2F1 (BDF1) mice
Conditions: endpoint: mean survival time, higher = longer survival
Outline: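 Survival endpoint. Drug-treated group vs vehicle group, expressed as T divided by C. Tumor passaged by transplantation.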

[1] = dose: 50.0 mg/kg/injection, schedule: Q04DX003 (ip), vehicle: saline
[2] = dose: 100.0 mg/kg/injection, schedule: Q01DX001 (ip), vehicle: saline
[3] = dose: 100.0 mg/kg/injection, schedule: Q04DX003 (ip), vehicle: saline
[4] = dose: 200.0 mg/kg/injection, schedule: Q01DX001 (ip), vehicle: saline
[5] = dose: 200.0 mg/kg/injection, schedule: Q04DX003 (ip), vehicle: saline
[6] = dose: 400.0 mg/kg/injection, schedule: Q01DX001 (ip), vehicle: saline
[7] = dose: 400.0 mg/kg/injection, schedule: Q04DX003 (ip), vehicle: saline
[8] = dose: 100.0 mg/kg/injection, schedule: Q01DX009 (ip), vehicle: Klucel (hydroxypropylcellulose) (HPC)
[9] = dose: 100.0 mg/kg/injection, schedule: Q04DX003 (ip), vehicle: Klucel (hydroxypropylcellulose) (HPC)
[10] = dose: 200.0 mg/kg/injection, schedule: Q01DX009 (ip), vehicle: Klucel (hydroxypropylcellulose) (HPC)
[11] = dose: 200.0 mg/kg/injection, schedule: Q04DX003 (ip), vehicle: Klucel (hydroxypropylcellulose) (HPC)
[12] = dose: 400.0 mg/kg/injection, schedule: Q04DX003 (ip), vehicle: Klucel (hydroxypropylcellulose) (HPC)
[13] = dose: 100.0 mg/kg/injection, schedule: Q04DX003 (ip), vehicle: saline with Tween-80
[14] = dose: 200.0 mg/kg/injection, schedule: Q04DX003 (ip), vehicle: saline with Tween-80
[15] = dose: 400.0 mg/kg/injection, schedule: Q04DX003 (ip), vehicle: saline with Tween-80
[16] = dose: 100.0 mg/kg/injection, schedule: Q01DX009 (ip), vehicle: saline with Tween-80
[17] = dose: 200.0 mg/kg/injection, schedule: Q01DX009 (ip), vehicle: saline with Tween-80
[18] = dose: 400.0 mg/kg/injection, schedule: Q01DX009 (ip), vehicle: saline with Tween-80
[19] = dose: 50.0 mg/kg/injection, schedule: Q01DX001 (ip), vehicle: saline

Measured: T/C

CN=C(Nc1ccccc1C)SC
inactive: [1] 100 % of control | [2] 98 % of control | [3] 100 % of control | [4] 102 % of control | [5] 106 % of control

COC(=O)c1cccc2c1C(Br)C(Br)c1ccccc1-2 (stereo not drawn)
inactive: [2] 101 % of control | [3] 100 % of control | [4] 98 % of control | [5] 97 % of control | [6] 98 % of control | [7] 94 % of control

COC(=O)c1[nH]c(=O)[nH]c(=O)c1[N+](=O)[O-]
inactive: dose: 75.0 mg/kg/injection, schedule: Q01DX001 (ip), vehicle: saline 106 % of control | dose: 150.0 mg/kg/injection, schedule: Q01DX001 (ip), vehicle: saline 93 % of control | dose: 300.0 mg/kg/injection, schedule: Q01DX001 (ip), vehicle: saline 93 % of control

CCN1C(=O)CC(O)C1=O (stereo not drawn)
inactive: dose: 100.0 mg/kg/injection, schedule: Q01DX009 (ip), vehicle: saline 101 % of control | dose: 200.0 mg/kg/injection, schedule: Q01DX009 (ip), vehicle: saline 100 % of control | dose: 400.0 mg/kg/injection, schedule: Q01DX009 (ip), vehicle: saline 97 % of control

CCOc1cc(N)ccc1C
inactive: [8] 97 % of control | [9] 108 % of control | [10] 99 % of control | [11] 97 % of control | [12] 101 % of control

CCN(CC)C(=Nc1ccc(NC(=O)c2ccc(C(=O)Nc3ccc(N=C(c4ccccc4)N(CC)CC)cc3)cc2)cc1)c1ccccc1
inactive: dose: 15.0 mg/kg/injection, schedule: Q01DX Z (ip), vehicle: carboxymethylcellulose (CMC) 92 % of control | dose: 30.0 mg/kg/injection, schedule: Q01DX Z (ip), vehicle: carboxymethylcellulose (CMC) 93 % of control | dose: 60.0 mg/kg/injection, schedule: Q01DX Z (ip), vehicle: carboxymethylcellulose (CMC) 98 % of control | dose: 120.0 mg/kg/injection, schedule: Q01DX Z (ip), vehicle: carboxymethylcellulose (CMC) 114 % of control

OC12CC3CC(CC(C3)C1)C2
inactive: [2] 95 % of control | [4] 106 % of control | [6] 103 % of control

C#CCOC(C(=O)OC1CCN(C)CC1)(c1ccccc1)c1ccccc1
inactive: dose: 25.0 mg/kg/injection, schedule: Q04DX003 (ip), vehicle: saline 105 % of control | [1] 105 % of control | [3] 97 % of control and 98 % of control

CCNC(=O)CS(=O)(=O)c1ccc(N)cc1
inactive: [3] 100 % of control | [5] 108 % of control | [7] 105 % of control

CC(=O)NC1CONC1=O (stereo not drawn)
inactive: [13] 98 % of control | [14] 98 % of control | [15] 94 % of control

CCCC(=O)C(CC)C(=O)Nc1ccccc1 (stereo not drawn)
inactive: dose: 50.0 mg/kg/injection, schedule: Q04DX003 (ip), vehicle: Klucel (hydroxypropylcellulose) (HPC) 100 % of control | dose: 100.0 mg/kg/injection, schedule: Q01DX001 (ip), vehicle: carboxymethylcellulose (CMC) 94 % of control | [9] 93 % of control | dose: 200.0 mg/kg/injection, schedule: Q01DX001 (ip), vehicle: carboxymethylcellulose (CMC) 105 % of control | [11] 102 % of control | dose: 400.0 mg/kg/injection, schedule: Q01DX001 (ip), vehicle: carboxymethylcellulose (CMC) 100 % of control

O=C(CCc1ccc(O)cc1)N/N=C/c1cc(Br)ccc1O
inactive: [16] 97 % of control | [13] 95 % of control | [17] 92 % of control | [14] 96 % of control | [18] 92 % of control | [15] 90 % of control

COC(=O)CNC(=O)C1NC(C)(C)SC1(C)C (stereo not drawn)
inactive: [2] 97 % of control | [4] 101 % of control | [6] 95 % of control

CCCCCCCCCCCCCCCOc1ccc(C=Nc2ccc(C)cc2)cc1
inactive: [9] 93 % of control | [11] 102 % of control | [12] 102 % of control

CS(=O)(=O)CCCl
inactive: dose: 100.0 mg/kg/injection, schedule: Q01DX009 (ip), vehicle: carboxymethylcellulose (CMC) 102 % of control and 106 % of control | dose: 100.0 mg/kg/injection, schedule: Q04DX002 (ip), vehicle: Klucel (hydroxypropylcellulose) (HPC) 103 % of control | dose: 100.0 mg/kg/injection, schedule: Q04DX002 (ip), vehicle: carboxymethylcellulose (CMC) 100 % of control and 109 % of control | dose: 100.0 mg/kg/injection, schedule: Q04DX003 (ip), vehicle: carboxymethylcellulose (CMC) 107 % of control | dose: 200.0 mg/kg/injection, schedule: Q01DX009 (ip), vehicle: carboxymethylcellulose (CMC) 98 % of control and 102 % of control | dose: 200.0 mg/kg/injection, schedule: Q04DX002 (ip), vehicle: Klucel (hydroxypropylcellulose) (HPC) 103 % of control | dose: 200.0 mg/kg/injection, schedule: Q04DX002 (ip), vehicle: carboxymethylcellulose (CMC) 97 % of control and 98 % of control | dose: 200.0 mg/kg/injection, schedule: Q04DX003 (ip), vehicle: carboxymethylcellulose (CMC) 98 % of control | dose: 400.0 mg/kg/injection, schedule: Q04DX002 (ip), vehicle: Klucel (hydroxypropylcellulose) (HPC) 103 % of control | dose: 400.0 mg/kg/injection, schedule: Q04DX002 (ip), vehicle: carboxymethylcellulose (CMC) 102 % of control and 105 % of control | dose: 400.0 mg/kg/injection, schedule: Q04DX003 (ip), vehicle: carboxymethylcellulose (CMC) 102 % of control

CCCCNC(=O)Nc1ccc(C(=O)OCC)cc1
inactive: [8] 98 % of control | [9] 95 % of control | [10] 98 % of control | [11] 96 % of control | dose: 400.0 mg/kg/injection, schedule: Q01DX009 (ip), vehicle: Klucel (hydroxypropylcellulose) (HPC) 88 % of control | [12] 94 % of control

CC1(C)Oc2[nH]c(=O)n(-c3ccccc3)c(=O)c2C1c1ccc(Cl)cc1 (stereo not drawn)
inactive: dose: 12.5 mg/kg/injection, schedule: Q01DX001 (ip), vehicle: saline 94 % of control | dose: 12.5 mg/kg/injection, schedule: Q04DX003 (ip), vehicle: acetone 103 % of control | dose: 25.0 mg/kg/injection, schedule: Q01DX001 (ip), vehicle: saline 97 % of control | dose: 25.0 mg/kg/injection, schedule: Q04DX003 (ip), vehicle: acetone 86 % of control | dose: 35.0 mg/kg/injection, schedule: Q01DX009 (ip), vehicle: saline 94 % of control | [19] 92 % of control | dose: 55.0 mg/kg/injection, schedule: Q01DX009 (ip), vehicle: saline 96 % of control | dose: 80.0 mg/kg/injection, schedule: Q01DX009 (ip), vehicle: saline 106 % of control

NC(=O)c1ccncc1
inactive: [2] 105 % of control | [4] 104 % of control | [6] 98 % of control

CC1([N+](=O)[O-])COP(=O)(Nc2ccc(Br)cc2)OC1 (stereo not drawn)
inactive: [19] 93 % of control | [2] 98 % of control | [4] 104 % of control | [6] 122 % of control

O=Cc1ccc(O)c(Br)c1
inactive: [16] 100 % of control | [17] 109 % of control | [18] 88 % of control

COc1cc(N)ccc1C(=O)O
inactive: [3] 94 % of control | [5] 96 % of control | [7] 97 % of control

Cc1nc(N)n(C)n1
inactive: dose: 100.0 mg/kg/injection, schedule: Q04DX002 (ip), vehicle: saline 104 % of control | dose: 200.0 mg/kg/injection, schedule: Q04DX002 (ip), vehicle: saline 101 % of control | dose: 400.0 mg/kg/injection, schedule: Q04DX002 (ip), vehicle: saline 101 % of control

COc1ccc(-c2cnc3c(N)nn(C)c3n2)cc1
inactive: [16] 109 % of control | [13] 92 % of control | [17] 101 % of control | [14] 100 % of control | [18] 109 % of control | [15] 94 % of control
